Source: PubChem BioAssay (NCI)
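Abbreviation: GI50, concentration required for 50% inhibition of growth. The concentration for full growth arrest is given as TGI.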

Columns and labels:
Experiment in all cases: NCI anticancer screen, dose series, 384-well format
[1] = system: MDA-MB-231 breast
[2] = system: LOX IMVI melanoma
[3] = system: HCC-2998 colon
[4] = system: MALME-3M melanoma
[5] = system: RPMI-8226 leukemia
[6] = system: HT29 colon
[7] = system: SF-539 CNS
[8] = system: SR leukemia
[9] = system: MDA-MB-468 breast
[10] = system: OVCAR-3 ovarian
[11] = system: SK-MEL-28 melanoma
[12] = system: IGROV1 ovarian
[13] = system: ACHN renal
[14] = system: NCI-H522 lung
[15] = system: HCT-15 colon
[16] = system: SN12C renal
[17] = system: SK-OV-3 ovarian
[18] = system: CAKI-1 renal
[19] = system: UO-31 renal
[20] = system: EKVX NSCLC
[21] = system: CCRF-CEM leukemia
[22] = system: K-562 leukemia
[23] = system: PC-3 prostate
[24] = system: OVCAR-4 ovarian
[25] = system: NCI-H226 lung
[26] = system: SF-295 CNS
[27] = system: HOP-62 NSCLC
[28] = system: COLO 205 colon
[29] = system: DU-145 prostate
[30] = system: SNB-19 CNS
[31] = system: TK-10 renal
[32] = system: SK-MEL-5 melanoma
[33] = system: HL-60(TB) leukemia
[34] = system: T-47D breast
[35] = system: MOLT-4 leukemia
[36] = system: NCI/ADR-RES ovarian
[37] = system: SF-268 CNS
[38] = system: RXF 393 renal
[39] = system: SNB-75 CNS
[40] = system: 786-0 renal
[41] = system: MCF7 breast
[42] = system: KM12 colon
[43] = system: HS 578T breast
[44] = system: MDA-MB-435 melanoma
[45] = system: A498 renal
[46] = system: UACC-257 melanoma
[47] = system: UACC-62 melanoma
[48] = system: M14 melanoma
[49] = system: OVCAR-8 ovarian
[50] = system: NCI-H460 NSCLC
[51] = system: A549 NSCLC
[52] = system: SW-620 colon
[53] = system: OVCAR-5 ovarian
[54] = system: HOP-92 NSCLC
[55] = system: NCI-H322M lung
[56] = system: NCI-H23 lung
[57] = system: BT-549 breast

CN1C(=O)C(C)(C)Oc2c(-c3cn(C)c(=O)c4[nH]ccc34)cc(S(C)(=O)=O)cc21 showed a GI50 [1] of 168 nM, a TGI [1] of 2260 nM and a GI50 [2] of 157 nM. The TGI [2] was 327 nM, the GI50 [3] was 150 nM and the TGI [3] was 468 nM. It also gave a GI50 [4] of 115 nM, a TGI [4] of 731 nM and a GI50 [5] of 23.4 nM. For the same compound, the TGI [5] was 152 nM, the GI50 [6] was 196 nM and the TGI [6] was 7840 nM. For the same compound, the GI50 [7] was 274 nM, the TGI [7] was 1050 nM and the GI50 [8] was 72.8 nM. The TGI [8] was 531 nM, the GI50 [9] was 114 nM and the TGI [9] was 439 nM. It also gave a GI50 [10] of 232 nM, a TGI [10] of 1180 nM and a GI50 [11] of 347 nM. It also gave a TGI [11] of 4210 nM, a GI50 [12] of 329 nM and a TGI [12] of 1390 nM. It also gave a GI50 [13] of 1480 nM, a TGI [13] of 11000 nM and a GI50 [14] of 135 nM. The TGI [14] was 544 nM, the GI50 [15] was 340 nM and the TGI [15] was 2270 nM. For the same compound, the GI50 [16] was 669 nM, the TGI [16] was 3550 nM and the GI50 [17] was 237 nM. The TGI [17] was 1560 nM, the GI50 [18] was 229 nM and the TGI [18] was 2150 nM. The GI50 [19] was 2560 nM, the TGI [19] was greater than 100000 nM and the GI50 [20] was 1510 nM. The TGI [20] was 11100 nM, the GI50 [21] was 174 nM and the TGI [21] was 1390 nM. It also gave a GI50 [22] of 268 nM, a TGI [22] of 5650 nM and a GI50 [23] of 1040 nM. The TGI [23] was 50700 nM, the GI50 [24] was 114 nM and the TGI [24] was 346 nM. For the same compound, the GI50 [25] was 223 nM, the TGI [25] was 1710 nM and the GI50 [26] was 1050 nM. The TGI [26] was 7540 nM, the GI50 [27] was 287 nM and the TGI [27] was 2270 nM. It also gave a GI50 [28] of 228 nM, a TGI [28] of 1390 nM and a GI50 [29] of 1290 nM. It also gave a TGI [29] of 22900 nM, a GI50 [30] of 423 nM and a TGI [30] of 7130 nM. The GI50 [31] was 279 nM, the TGI [31] was 1170 nM and the GI50 [32] was 178 nM. It also gave a TGI [32] of 1140 nM, a GI50 [33] of 48.5 nM and a TGI [33] of 184 nM. It also gave a GI50 [34] of 156 nM, a TGI [34] of 865 nM and a GI50 [35] of 220 nM. It also gave a TGI [35] of 1010 nM, a GI50 [36] of 5650 nM and a TGI [36] of 45900 nM. For the same compound, the GI50 [37] was 728 nM, the TGI [37] was 3490 nM and the GI50 [38] was 1730 nM. The TGI [38] was 10700 nM, the GI50 [39] was 343 nM and the TGI [39] was 7570 nM. The GI50 [40] was 355 nM, the TGI [40] was 7360 nM and the GI50 [41] was 84.7 nM. For the same compound, the TGI [41] was 949 nM, the GI50 [42] was 330 nM and the TGI [42] was 1910 nM. The GI50 [43] was 65.2 nM, the TGI [43] was 349 nM and the GI50 [44] was 868 nM. It also gave a TGI [44] of 12700 nM, a GI50 [45] of 381 nM and a TGI [45] of 11500 nM. It also gave a GI50 [46] of 206 nM, a TGI [46] of 1330 nM and a GI50 [47] of 68.7 nM. The TGI [47] was 891 nM, the GI50 [48] was 364 nM and the TGI [48] was 16300 nM. It also gave a GI50 [49] of 235 nM, a TGI [49] of 1190 nM and a GI50 [50] of 1160 nM. It also gave a TGI [50] of 10400 nM, a GI50 [51] of 389 nM and a TGI [51] of 7080 nM. The GI50 [52] was 1280 nM, the TGI [52] was 5610 nM and the GI50 [53] was 271 nM. For the same compound, the TGI [53] was 2240 nM, the GI50 [54] was 149 nM and the TGI [54] was 1850 nM. It also gave a GI50 [55] of 441 nM, a TGI [55] of 3900 nM and a GI50 [56] of 257 nM. The TGI [56] was 1570 nM, the GI50 [57] was 164 nM and the TGI [57] was 785 nM.
